The results in this text go back to patent publication US10022342B2, “Methods and compositions for treating multiple myeloma” (Ohio State Innovation Foundation, priority 2015, dated 2018).

The test system of one assay is MM cells. In words: IC50 concentrations of HDAC inhibitors in MM cells. Type of assay: cell-based. The settings on record: Homo sapiens.
Assay [1] deals with U266, RPMI, and MM1S cells. The experiment in a line: Apoptosis (annexin) and necrosis (propidium iodide) by HDAC inhibitors, FIG. 15. The class given is cell-based, human. The protocol:
Apoptosis was measured by annexin staining while cell necrosis was measured by propidium iodide staining.
CD44 surface expression was analyzed by staining cells with CD44-FITC antibody (BD Biosciences) for 30 min. in the dark, at room temperature. Apoptosis was measured by Annexin V-FITC and Propidium Iodide (PI) (Clontech) staining for 15 min. in the dark, at room temperature and data immediately acquired on a Beckman Coulter FC500 (Beckman Coulter) machine. Analysis was conducted using the FlowJo Software vX.0.7 (Tree Star Inc.). For the multiparametric analysis, the bone marrow samples were stained with CD38-PE (347687; BD Bioscience), CD138-APC (347193; BD Bioscience), CD45-ECD (A07784; Beckman Coulter), CD44-FITC (BD Bioscience) and AnnexinV-FITC (Clontech) for 30 minutes, washed with PBS and immediately analyzed with Gallios cytometer (Beckman Coulter).

The next assay relates to MM.1S GFP/Luc+ cells. In words: NOD-SCID mice engrafted i.v. with MM.1S GFP/Luc+ cells, oral AR-42 + pomalidomide. Type of assay: in vivo. The settings on record: 25 mg/kg each. From the text:
To investigate whether the oral combination treatment of AR-42 and pomalidomide improves the survival of mice engrafted with MM cells, 40 NOD-SCID mice were engrafted with 10×10^6 MM.1S GFP/Luc+ cells by intravenous injection (IV). Ten days later, mice with the same tumor burden (as calculated by luminescence) (FIG. 14C) were randomly divided into 4 treatment groups (10 mice per group): AR-42 alone, pomalidomide alone, AR-42+pomalidomide, and vehicle control (Ctrl, 8% DMSO in PBS). Mice were treated by oral administration (gavage) daily with pomalidomide (25 mg/kg) or Ctrl, and three times a week (Mon-Tues-Fri) with AR-42 (25 mg/kg) or Ctrl, until elimination criteria, including paralysis, extreme weight loss and dehydration, were reached.

pIC50: −log10 of the molar value.

Usually pIC50 stands for the IC50 on a negative log10 scale, so that one unit is a factor of ten. Low values mean a high IC50, high ones a low IC50. On to `Cc1[nH]c2ccccc2c1CCNCc1ccc(/C=C/C(=O)NO)cc1` [LBH, reference compound], for which, in the assay on MM cells, the pIC50 is 8.00. Also, the dose response curve entry in assay [1] (data not shown) was “No dose response curve could be obtained”.
On to `O=C(CCCCCCC(=O)Nc1ccccc1)NO` [SAHA, suberoylanilide hydroxamic acid, reference compound], for which, in assay [1] (24 and 48 hours, 0.25, 0.5, and 1 μM), the “apoptosis (annexin staining)” value was “limited impact on apoptosis”.
In the case of `Nc1cccc2c1C(=O)N(C1CCC(=O)NC1=O)C2=O` (stereo not shown) [pomalidomide, reference compound], in the assay on MM.1S GFP/Luc+ cells, the median survival amounted to 42 days.
